# Measured values as given in ChEMBL document CHEMBL1649447, “Colorimetric high-throughput screen for detection of heme crystallization inhibitors” (Antimicrob Agents Chemother, 2009).
# Key:
# [1] = test system: Heme; assay: Inhibition of heme crystallization by cell-free heme crystallization screen assay
# [2] = test system: Heme; assay: Inhibition of heme crystallization by hemichrome inhibition of beta-hematin assay; type: functional
# [3] = test system: Plasmodium falciparum; assay: Antimicrobial activity against Plasmodium falciparum 3D7 by DAPI growth inhibition assay; type: functional, organism-based
Compound,IC50 [1],IC50 [2],IC50 [3]
CCN(CC)Cc1cc(Nc2ccnc3cc(Cl)ccc23)ccc1O.Cl,67 µM,1.45 equiv,0.0068 µM
CCN(CC)CCCC(C)Nc1ccnc2cc(Cl)ccc12 (configuration not stated) [CHLOROQUINE],374 µM,1.91 equiv,
OC(c1cc(C(F)(F)F)nc2c(C(F)(F)F)cccc12)C1CCCCN1 (configuration not stated) [MEFLOQUINE],476 µM,2.9 equiv,
